Entries after “also recorded” stand apart in the source; their conditions may differ. Like-named read-outs stand apart in the source and are kept apart here.
What was measured:
PDE9A = target: T1, PDE9A (Homo sapiens, UniProt O76083); experiment: Enzymatic assay against PDE9A (3H-cGMP substrate); type: biochemical
T1 construct: pET-PDE9A2 plasmid (catalytic domain, 181–506); made in house; host or cells: E. coli BL21 (Codonplus)
Description: The E. coli cells carrying pET-PDE9A2 was grown in LB medium (containing 100 μg/ml ampicillin and 0.4% glucose) at 37 °C until OD600 = 0.6–0.8. 0.1 mM iso-propyl-β-D-thiogalactopyranoside was added to induce the PDE9A2 protein expression at 15 °C for 20 h. PDE9A was purified on the nickel nitriloacetic acid (Ni-NTA) column (Qiagen, Hilden, Germany) and eluted with 0.25 M imidazole. The concentration of PDE9A was estimated by the absorbance at 280 nm (calculated using ProtParam software, http://web.expasy.org/protparam). A typical batch of purification yielded 30–60 mg PDE9A2 protein from a 0.5 l cell culture. The PDE9A2 proteins had purity greater than 90% as shown by sodium dodecyl sulphate polyacrylamide gel electrophoresis (SDS-PAGE).
The enzymatic activities of the catalytic domain of PDE9A2 were measured by using ^3H-cGMP as the substrate and the assay buffer of 50 mM Tris-HCl (pH 8.0), 10 mM MgCl2, and 1 mM DTT. Each assay used ^3H-cGMP 20,000–30,000 cpm. The reaction was carried out at room temperature (25 °C) for 15 min and then terminated by addition of 0.2 M ZnSO4. The reaction product was precipitated by 0.2 N Ba(OH)2, whereas unreacted ^3H-cGMP remained in the supernatant. […] At least eight concentrations of inhibitors were measured parallel in each measurement, resulting an inhibition curve to calculate the IC50 value of inhibitors by nonlinear regression. Each measurement was repeated at least three times. The mean and standard deviation statistics of these three IC50 values were used as the final IC50 value and the corresponding SD.

[1] = Antioxidant activity, oxygen radical absorbance capacity fluorescein (ORAC-FL) method; details: for ORAC: samples 1–10 μM
Description: The antioxidant activity was determined by the modified oxygen radical absorbance capacity fluorescein (ORAC-FL) method[31]^,[32]. All the assays were diluted with 75 mM phosphate buffer (pH 7.4). The final reaction mixture was 200 μl. Test compound (20 μl) and fluorescein (120 μl, 150 nM final concentration) were placed in the wells of a black 96-well plate. After the mixture was incubated at 37 °C for 15 min, AAPH solution (60 μl, 12 mM final concentration) was added. The plate was placed in a Spectrafluor Plus plate reader (Tecan, Crailsheim, Germany) and the fluorescence was recorded every minute for 4 h with excitation at 485 nm and emission at 535 nm. Trolox was used as standard (1–8 μM, final concentration). A blank (FL + AAPH) in phosphate buffer instead of test compounds and trolox calibration were performed in each assay. The samples were measured at different concentration (1–10 μM). All the reaction mixture was prepared fourfold and at least three independent assays were performed for each sample. Fluorescence in time course was normalised on basis of the blank (without antioxidants). The ORAC-FL values were calculated as the reported method. ORAC-FL values were expressed as trolox equivalents.

PDE1B [2] = target: T2, PDE1B (Homo sapiens, UniProt Q01064); experiment: Enzymatic assay against PDE1B (3H-cGMP substrate); type: biochemical; details: 1000 nM (1 μM)
T2 construct: The catalytic domains of PDE1B (10–516) and PDE8A (480–820); made in house
T2 sequence (Q01064 10-516): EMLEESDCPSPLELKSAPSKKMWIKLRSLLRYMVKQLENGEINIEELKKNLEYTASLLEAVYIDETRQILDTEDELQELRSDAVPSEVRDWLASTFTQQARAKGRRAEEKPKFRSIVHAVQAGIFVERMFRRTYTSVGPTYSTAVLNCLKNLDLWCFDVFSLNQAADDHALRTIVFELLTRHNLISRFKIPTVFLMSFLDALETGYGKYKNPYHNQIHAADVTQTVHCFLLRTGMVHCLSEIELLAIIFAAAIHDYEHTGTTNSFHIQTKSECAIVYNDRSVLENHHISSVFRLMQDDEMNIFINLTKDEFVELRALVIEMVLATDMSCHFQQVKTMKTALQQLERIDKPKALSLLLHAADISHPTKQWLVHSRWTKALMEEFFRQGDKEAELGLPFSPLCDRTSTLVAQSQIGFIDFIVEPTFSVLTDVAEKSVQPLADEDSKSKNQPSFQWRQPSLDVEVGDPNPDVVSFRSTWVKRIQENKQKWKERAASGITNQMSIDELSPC
Description: (§2) The enzymatic activities of PDE1B and PDE8A were assayed by using ^3H-cGMP and ^3H-cAMP as the substrates, respectively, following the same procedure for PDE9A.

PDE1B [3] = experiment: Enzymatic assay against PDE1B (3H-cGMP substrate); type: biochemical; details: estimated from inhibition at 1 μM
Description: as §2

SH-SY5Y cells = experiment: In vitro cell viability assay (MTT); type: cell-based, human; details: for cytotoxicity to SH-SY5Y cells (in words): 48 h, up to 100 μM
Description: (§1) SH-SY5Y cells were used for the cytotoxicity test by the MTT (3–(4, 5-dimethyl-2-thiazolyl)-2,5-diphenyl-2-H-tetrazoliumbromide) method. After incubation of the SH-SY5Y cells (5 × 10^3) in a 96-well plate for 24 h, compounds at concentrations of 10, 20, 40, 60, 80, and 100 μM, were added. After incubation for 48 h, MTT solution was added to each cell well and the system was further inoculated for 4 h at 37 °C. The purple formazan dye and 120 μl DMSO were added to the cells and the absorbance was measured at 570 nm using EnSpire-2300 Multimode Reader (PerkinElmer, Waltham, MA).

[4] = In vitro cell viability assay (MTT); type: cell-based, human; details: human, SH-SY5Y cells, 48 h incubation, read-out: cellular viability
Description: as §1

PDE8A = target: T3, PDE8A (Homo sapiens, UniProt O60658); experiment: Enzymatic assay against PDE8A (3H-cAMP substrate); type: biochemical
T3 construct: The catalytic domains of PDE1B (10–516) and PDE8A (480–820); made in house
T3 sequence (O60658 480-820): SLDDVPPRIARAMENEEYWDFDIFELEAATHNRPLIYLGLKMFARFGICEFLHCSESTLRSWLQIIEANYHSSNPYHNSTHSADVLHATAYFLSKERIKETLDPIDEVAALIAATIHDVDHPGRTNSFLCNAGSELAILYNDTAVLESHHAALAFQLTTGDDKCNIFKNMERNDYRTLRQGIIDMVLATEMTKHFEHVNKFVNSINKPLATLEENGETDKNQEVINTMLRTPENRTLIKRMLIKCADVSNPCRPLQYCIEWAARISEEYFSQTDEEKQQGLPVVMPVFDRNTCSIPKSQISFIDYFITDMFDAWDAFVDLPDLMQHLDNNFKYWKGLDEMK
Description: as §2

PDE1B [5] = details: printed under head 'Inhibition of PDE1B at 1000 nM'; cited from earlier work
[6] = Table 1 and text, means of three independent determinations, read-out: IC50±SD

T1 sequence (O76083 241-566): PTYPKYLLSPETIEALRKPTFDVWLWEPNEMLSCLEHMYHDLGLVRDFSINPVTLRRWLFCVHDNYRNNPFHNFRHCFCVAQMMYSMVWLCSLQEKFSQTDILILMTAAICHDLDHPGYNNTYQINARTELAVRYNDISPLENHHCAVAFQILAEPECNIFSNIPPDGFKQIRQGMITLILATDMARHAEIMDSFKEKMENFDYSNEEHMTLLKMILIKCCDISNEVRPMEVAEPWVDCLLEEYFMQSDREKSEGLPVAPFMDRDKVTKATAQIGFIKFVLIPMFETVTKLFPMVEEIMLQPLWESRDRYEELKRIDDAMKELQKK

| SMILES | IC50 (PDE9A; [6]) [nM] | ORAC [1] [trolox equivalents] | ORAC-FL value / antioxidant activity (in words) [1] | other results |
| --- | --- | --- | --- | --- |
| COc1cc(/C=C/C(=O)N[C@H](C)c2nc3c(cnn3C3CCCC3)c(=O)[nH]2)ccc1O [Compound 1a, (R, E)-N-(1–(1-cyclopentyl-4-oxo-4,5-dihydro-1H-pyrazolo[3,4-d]pyrimidin-6-yl)ethyl)-3–(4-hydroxy-3-methoxyphenyl)acrylamide] | 126 ± 15 | 2.4 |  |  |
| C[C@@H](NC(=O)/C=C/c1ccc(O)c(O)c1)c1nc2c(cnn2C2CCCC2)c(=O)[nH]1 [Compound 1b, (R, E)-N-(1–(1-cyclopentyl-4-oxo-4,5-dihydro-1H-pyrazolo[3,4-d]pyrimidin-6-yl)ethyl)-3–(3,4-dihydroxyphenyl)acrylamide] | 64 ± 2 | 2.5 |  |  |
| COc1ccc(/C=C/C(=O)N[C@H](C)c2nc3c(cnn3C3CCCC3)c(=O)[nH]2)cc1OC [Compound 1c, (R, E)-N-(1–(1-cyclopentyl-4-oxo-4,5-dihydro-1H-pyrazolo[3,4-d]pyrimidin-6-yl)ethyl)-3– (3,4-dimethoxyphenyl)acrylamide] | 65 ± 4 | 0.23 | low ORAC-FL values |  |
| COc1ccc(/C=C/C(=O)N[C@H](C)c2nc3c(cnn3C3CCCC3)c(=O)[nH]2)cc1O [Compound 1d, (R, E)-N-(1–(1-cyclopentyl-4-oxo-4,5-dihydro-1H-pyrazolo[3,4-d]pyrimidin-6-yl)ethyl)-3–(3-hydroxy-4-methoxyphenyl)acrylamide] | 83 ± 11 | 1.26 |  |  |
| COc1cccc(/C=C/C(=O)N[C@H](C)c2nc3c(cnn3C3CCCC3)c(=O)[nH]2)c1 [Compound 1f, (R, E)-N-(1–(1-cyclopentyl-4-oxo-4,5-dihydro-1H-pyrazolo[3,4-d]pyrimidin-6-yl)ethyl)-3–(3-methoxyphenyl)acrylamide] | 190 ± 7 | 0.12 | low ORAC-FL values |  |
| C[C@@H](NC(=O)/C=C/c1ccc(O)cc1)c1nc2c(cnn2C2CCCC2)c(=O)[nH]1 [Compound 1g, (R, E)-N-(1–(1-cyclopentyl-4-oxo-4,5-dihydro-1H-pyrazolo[3,4-d]pyrimidin-6-yl)ethyl)-3–(4-hydroxyphenyl)acrylamide] | 63 ± 3 | 2.9 |  |  |
| C[C@@H](NC(=O)/C=C/c1cccc(O)c1)c1nc2c(cnn2C2CCCC2)c(=O)[nH]1 [Compound 1h, (R, E)-N-(1–(1-cyclopentyl-4-oxo-4,5-dihydro-1H-pyrazolo[3,4-d]pyrimidin-6-yl)ethyl)-3–(3-hydroxyphenyl)acrylamide] | 56 ± 7 | 3.3 |  | inhibition at 1 µM (PDE1B [2]): 13%; fold of selectivity against PDE9 over PDE1B (PDE1B [3]): > 25 fold; IC50 (PDE9A; Table 2, read-out: IC50 (nM) of PDE9A): 56 ± 1 nM; cytotoxicity to SH-SY5Y cells (in words) (SH-SY5Y cells): no cytotoxicity; also recorded: not toxic; viability at 48 h, 40 µM ([4]; 40 μM): ~90%; viability at 48 h, 100 µM ([4]; 100 μM): ~70%; inhibition at 10 µM (PDE8A): 10%; fold of selectivity against PDE9 over PDE8A (PDE8A; estimated from inhibition at 10 μM): > 250 fold |
| C[C@@H](NC(=O)/C=C/c1ccc(N(C)C)cc1)c1nc2c(cnn2C2CCCC2)c(=O)[nH]1 [Compound 1i, (R, E)-N-(1–(1-cyclopentyl-4-oxo-4,5-dihydro-1H-pyrazolo[3,4-d]pyrimidin-6-yl)ethyl)-3–(4-(dimethylamino)phenyl)acrylamide] | 133 ± 22 | 1.00 |  |  |
| C[C@@H](NC(=O)/C=C/c1cccc(Cl)c1)c1nc2c(cnn2C2CCCC2)c(=O)[nH]1 [Compound 1j, (R, E)-N-3–(3-chlorophenyl)-N-(1–(1-cyclopentyl-4-oxo-4,5-dihydro-1H-pyrazolo[3,4-d]pyrimidin-6-yl)ethyl)acrylamide] | 186 ± 7 | 0.08 | low ORAC-FL values |  |
| C[C@@H](NC(=O)/C=C/c1ccc(C(F)(F)F)cc1)c1nc2c(cnn2C2CCCC2)c(=O)[nH]1 [Compound 1k, (R, E)-N-(1–(1-cyclopentyl-4-oxo-4,5-dihydro-1H-pyrazolo[3,4-d]pyrimidin-6-yl)ethyl)-3–(4-(trifluoromethyl)phenyl)acrylamide] | 130 ± 6 | 0.02 | low ORAC-FL values |  |
| C[C@@H](NC(=O)Cc1ccc(O)c(O)c1)c1nc2c(cnn2C2CCCC2)c(=O)[nH]1 [Compound 1l, (R, E)-N-(1–(1-cyclopentyl-4-oxo-4,5-dihydro-1H-pyrazolo[3,4-d]pyrimidin-6-yl)ethyl)-2–(3,4-dihydroxyphenyl)acetamide] | 57 ± 4 | 2.6 |  |  |
| C[C@@H](NC(=O)CCCC[C@@H]1CCSS1)c1nc2c(cnn2C2CCCC2)c(=O)[nH]1 [Compound 2, N-((1N)-1–(1-cyclopentyl-4-oxo-3a, 4,5,6-tetrahydro-1H-pyrazolo[3,4-d]pyrimi–din-6-yl)ethyl)-5-((R)-1,2-dithiolan-3-yl)pentanamide] |  | 0.28 | low antioxidant activity | inhibition at 1 µM (PDE1B [2]): 59%; cellular viability (SH-SY5Y cells; 100 μM, 48 h incubation): no significant effect on cell viability; cytotoxicity to SH-SY5Y cells (in words) (SH-SY5Y cells): not toxic; inhibition at 10 µM (PDE8A): 9% |
| Cc1c(C)c2c(c(C)c1O)CCC(C)(C(=O)N[C@H](C)c1nc3c(cnn3C3CCCC3)c(=O)[nH]1)O2 (stereo partly drawn) [Compound 3, N-((R)-1–(1-cyclopentyl-4-oxo-4,5-dihydro-1H-pyrazolo[3,4-d]pyrimidin-6-yl)ethyl) -6-hydroxy-2,5,7,8-tetramethylchromane-2-carboxamide] | > 500 | 0.24 |  |  |
| COc1cc(/C=C/C(=O)O)ccc1O [Ferulic acid, reference compound] |  | 1.6 |  |  |
| C[C@@H]1CN(Cc2ncccn2)C[C@H]1c1nc2c(cnn2C2CCOCC2)c(=O)[nH]1 [PF-04447943, 6-[(3S,4S)-4-Methyl-1-(pyrimidin-2-ylmethyl)pyrrolidin-3-yl]-1-(tetrahydro-2H-pyran-4-yl)-1,5-dihydro-4H-pyrazolo[3,4-d]pyrimidin-4-one] |  |  |  | IC50 (PDE1B [5]): 1.39 µM |
